Consider 1 compound from patent EP0969013B1, “Peptides for inhibiting HPV E7 proteins” (Deutsches Krebsforschungszentrum Stiftung des öffentlichen …, priority 1998, dated 2003).

Type in all cases: cell-based
In experiment [1] the test system is E7/2 cells. Description: Cell cycle profile of E7/2 cells (propidium iodide, FACscan, CellQuest). Particulars: 10 µM - 200 µM penetratin-fused synthesized peptide, 1 hour to 72 hours, marker for cell proliferation. As to the method: (§1) • (A) Peptide No. 732 is chemically synthesized with a leader attached to the NH2 end and supporting the incorporation into cells. It is penetratin and originates from Drosophila antennapedia. Thus, peptide No. 732 is available as fusion polypeptide and has the following sequence: [formula] Cells are used in which HPV16 E7 is expressed and whose growth depends thereon. Such cells are e.g. E7/2 cells. They are transfected with 10 µM - 200 µM of the synthesized peptide No. 732. Growth rate, apoptosis and cell cycle profiles of the cells are determined 1 hour to 72 hours after the transfection. The former is effected by determining the cell number. As regards the second test, reference is made to Example 2 (A). As to the latter test, the cell DNA is stained with propidium iodide and its content is determined in a FACscan. On the basis thereof, the cell cycle profile is assessed by means of the CellQuest program (Schulze, A. et al., Proc. Natl. Acad. Sci, U.S.A. 92, (1995), 11264-11268), the number of cells in the S phase being taken as a marker for the cell proliferation. […] For this purpose, the BamHI/NdeI fragment (cf. Example 1) of pJM-1 is inserted in the vector pET 19b (Novagen company) so as to obtain the vector pH6-732. Thereafter, cleavage is carried out by means of Ndel and a TAT-cDNA of HIV-1 (Vives, E. et al., J. Biol. Chem. 272, (1997), 16010-16017) is inserted. […]

For experiment [2], the system named is E7/2 cells. Description: Apoptosis of E7/2 cells (propidium iodide, FACscan). Particulars: 10 µM - 200 µM penetratin-fused synthesized peptide, 1 hour to 72 hours. As to the method:
24 hours after the transfection, the cells are fixed and stained using propidium iodide. The cells are analyzed in a FACscan by measuring the fluorescence caused by propidium iodide. Apoptotic nuclei are shown as nuclei having a DNA content of less than 2N. The amount of apoptotic nuclei is determined in comparison with normal nuclei.
• (A) Peptide No. 732 is chemically synthesized with a leader attached to the NH2 end and supporting the incorporation into cells. It is penetratin and originates from Drosophila antennapedia. Thus, peptide No. 732 is available as fusion polypeptide and has the following sequence: [formula] Cells are used in which HPV16 E7 is expressed and whose growth depends thereon. Such cells are e.g. E7/2 cells. They are transfected with 10 µM - 200 µM of the synthesized peptide No. 732. Growth rate, apoptosis and cell cycle profiles of the cells are determined 1 hour to 72 hours after the transfection. The former is effected by determining the cell number. […] As to the latter test, the cell DNA is stained with propidium iodide and its content is determined in a FACscan. On the basis thereof, the cell cycle profile is assessed by means of the CellQuest program (Schulze, A. et al., Proc. Natl. Acad. Sci, U.S.A. 92, (1995), 11264-11268), the number of cells in the S phase being taken as a marker for the cell proliferation. […]

Experiment [3] has as its system E7/2 cells. Briefly: Growth rate of E7/2 cells (cell number). Particulars: 10 µM - 200 µM penetratin-fused synthesized peptide, 1 hour to 72 hours. The protocol:
as §1

Peptide text beside a SMILES is read from it.

Turning to `CC[C@H](C)[C@H](NC(=O)[C@H](CCCCN)NC(=O)[C@H](CCCCN)NC(=O)[C@H](Cc1c[nH]c2ccccc12)NC(=O)[C@H](CCCCN)NC(=O)[C@H](CCSC)NC(=O)[C@H](CCCNC(=N)N)NC(=O)[C@H](CCCNC(=N)N)NC(=O)[C@H](CC(N)=O)NC(=O)[C@H](CCC(N)=O)NC(=O)[C@H](Cc1ccccc1)NC(=O)[C@H](Cc1c[nH]c2ccccc12)NC(=O)[C@@H](NC(=O)[C@H](CCCCN)NC(=O)[C@@H](NC(=O)[C@H](CCC(N)=O)NC(=O)[C@@H](N)CCCNC(=N)N)[C@@H](C)CC)[C@@H](C)CC)C(=O)N[C@@H](C)C(=O)N[C@@H](C)C(=O)N[C@@H](CCCNC(=N)N)C(=O)N[C@@H](CC(C)C)C(=O)N[C@@H](CCCNC(=N)N)C(=O)N[C@@H](CC(C)C)C(=O)N[C@@H](CCCNC(=N)N)C(=O)N[C@@H](CS)C(=O)NCC(=O)N[C@H](C(=O)N[C@H](C(=O)N[C@@H](CC(C)C)C(=O)N[C@@H](CC(C)C)C(=O)N[C@@H](CC(C)C)C(=O)N[C@@H](CS)C(=O)N[C@H](C(=O)N[C@@H](CC(C)C)C(=O)N[C@@H](CC(=O)O)C(=O)N[C@@H](CC(C)C)C(=O)O)[C@@H](C)O)[C@@H](C)CC)C(C)C` [peptide No. 732] (H-RQIKIWFQNRRMKWKKIAARLRLRCGVILLLCTLDL-OH), in the experiment with E7/2 cells [1], the “number of cells in the S phase” value is recorded as “reduces the number of cells in the S phase”. The apoptosis frequency entry in the experiment on E7/2 cells [2] is reported as “lowers the apoptosis frequency”. The growth rate result in the experiment with E7/2 cells [3] was “reduces the growth rate”.
